Measurements published in publication PMC10620772, “Design, synthesis, and biological evaluation of new pyrimidine-5-carbonitrile derivatives as novel anti-cancer, dual EGFR^WT/COX-2 inhibitors with docking studies” (RSC Advances, 2023).

Experiments:
[1] = test system: K-562; test: NCI60 antitumor screening; type: cell-based, human; settings: five-dose
[2] = molecular target: T1, EGFR^WT (Homo sapiens, UniProt P00533); test: In vitro EGFR^WT inhibitory assay (BPS Bioscience kinase kit); type: biochemical; settings: means ± SD of three experiments
T1 construct: purchased BPS Bioscience 40 321
T1 sequence (P00533 25-1210): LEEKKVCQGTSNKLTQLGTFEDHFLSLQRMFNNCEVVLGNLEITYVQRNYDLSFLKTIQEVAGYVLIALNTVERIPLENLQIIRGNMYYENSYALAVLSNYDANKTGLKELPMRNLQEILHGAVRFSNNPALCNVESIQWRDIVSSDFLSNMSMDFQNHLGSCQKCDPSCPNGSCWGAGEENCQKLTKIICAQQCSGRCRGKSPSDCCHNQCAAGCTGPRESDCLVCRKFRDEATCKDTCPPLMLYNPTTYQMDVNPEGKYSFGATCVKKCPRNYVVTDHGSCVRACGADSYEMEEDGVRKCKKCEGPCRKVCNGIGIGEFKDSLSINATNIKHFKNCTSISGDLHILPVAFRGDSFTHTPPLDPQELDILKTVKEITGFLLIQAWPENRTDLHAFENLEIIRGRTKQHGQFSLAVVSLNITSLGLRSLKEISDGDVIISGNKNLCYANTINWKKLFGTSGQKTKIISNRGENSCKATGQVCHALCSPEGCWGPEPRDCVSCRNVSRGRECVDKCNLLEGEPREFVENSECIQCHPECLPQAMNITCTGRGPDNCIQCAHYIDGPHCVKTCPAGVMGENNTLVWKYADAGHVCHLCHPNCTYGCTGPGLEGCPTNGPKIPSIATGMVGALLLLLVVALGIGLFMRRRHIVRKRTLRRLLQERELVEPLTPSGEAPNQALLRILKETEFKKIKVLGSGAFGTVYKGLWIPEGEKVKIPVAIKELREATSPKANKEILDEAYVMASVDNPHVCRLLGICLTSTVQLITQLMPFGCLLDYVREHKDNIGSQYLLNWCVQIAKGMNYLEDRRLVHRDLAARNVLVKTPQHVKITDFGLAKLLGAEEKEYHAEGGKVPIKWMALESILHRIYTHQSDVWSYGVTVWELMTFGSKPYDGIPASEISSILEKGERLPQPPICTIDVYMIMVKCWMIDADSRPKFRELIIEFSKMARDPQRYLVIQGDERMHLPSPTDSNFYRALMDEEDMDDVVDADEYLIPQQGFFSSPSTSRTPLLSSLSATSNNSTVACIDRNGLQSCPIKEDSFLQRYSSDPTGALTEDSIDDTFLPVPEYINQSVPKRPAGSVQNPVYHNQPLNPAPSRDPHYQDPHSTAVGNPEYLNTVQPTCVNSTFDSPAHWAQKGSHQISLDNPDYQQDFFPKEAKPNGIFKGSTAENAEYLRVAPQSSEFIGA
Description: (1) Prepare the mixture of N wells × (kinase assay buffer 6 μl, ATP1 μl, PTK substrate 1 μl and water 17 μl). to every well pipette the 25 μl. […] On the contrary, add 5 μl of inhibitor buffer to control and plank wells. (3) Pipette 20 μl of EGFR^WT to test and control wells, on the blank wells pipette 20 μl kinase assay buffer. Then incubate at R.T for 40 min. (4) end the incubation after 40 min by adding to every well 50 μl of Kinase-Glo Max reagent, and incubate 15 min. By measuring the ATP quantity after kinase reaction, the activity of kinase could be detected. (5) use microplate reader to measure the luminescence.[51]

[3] = test system: OVCAR-4; test: NCI60 antitumor screening; type: cell-based, human
[4] = test system: MDA-MB-435; test: NCI60 antitumor screening; type: cell-based, human
[5] = test system: SF-539; test: NCI60 antitumor screening; type: cell-based, human
[6] = test system: Leukemia subpanel; test: NCI60 five-dose, subpanel I; type: cell-based, human
Excerpt: (§1) (2) The molar concentration of the compound responsible for total growth inhibition, also known as total growth inhibition (TGI).
(§2) Regarding subpanel selectivity toward certain cancer type, the method of determining a compound's selectivity index is to divide the full panel MG-MID (μM) value by each single subpanel. Values above six indicate high selectivity against the subpanel; moderate selectivity is denoted by values between three and six. Conversely, compounds are termed nonselective if their selectivity is less than three.[30,37]

[7] = test system: M14; test: NCI60 antitumor screening; type: cell-based, human
[8] = test system: NCI-H460; test: NCI60 antitumor screening; type: cell-based, human
[9] = test system: SF-268; test: NCI60 antitumor screening; type: cell-based, human
[10] = test system: HT29; test: NCI60 antitumor screening; type: cell-based, human
[11] = test system: SF-295; test: NCI60 antitumor screening; type: cell-based, human
[12] = test system: HL-60(TB); test: NCI60 antitumor screening; type: cell-based, human
[13] = test system: BT-549; test: NCI60 antitumor screening; type: cell-based, human
[14] = test system: prostate cancer subpanel; test: NCI60 five-dose, subpanel VIII; type: cell-based, human
Excerpt: as §1, §2

[15] = test system: A549/ATCC; test: NCI60 antitumor screening; type: cell-based, human
[16] = test system: U251; test: NCI60 antitumor screening; type: cell-based, human
[17] = Homo sapiens, OVCAR-4, five-dose
[18] = Homo sapiens, SF-539, five-dose
[19] = full panel MG-MID / subpanel VIII

For `N#Cc1c(-c2ccc(F)cc2)nc(SCc2ccccc2)nc1N1CCNCC1` [4e, 2-(Benzylthio)-4-(4-fluorophenyl)-6-(piperazin-1-yl) pyrimidine-5-carbonitrile], the TGI [1] was 5.42 µM, the IC50 [2] was 0.096 ± 0.004 µM and the GI50 [3, 17] was 15.7 µM. For the same molecule, the LC50 (lethal concentration, 50% cell kill) [3, 17] was 74.7 µM, the inhibition at 10 µM ([3]; Homo sapiens, 10 μM single dose, OVCAR-4 (ovarian cancer), read-out: growth inhibition percent (GI%)) was over 100% and the TGI ([3]; five-dose) was 34.20 µM. The GI50 ([4]; Homo sapiens, MDA-MB-435, five-dose) was 16.9 µM, the CC50 ([4]; Homo sapiens, MDA-MB-435, five-dose, read-out: LC50 (the source's name)) was 58.8 µM and the inhibition at 10 µM ([4]; Homo sapiens, 10 μM single dose, MDA-MB-435 (melanoma), read-out: growth inhibition percent (GI%)) was over 100%. The TGI ([4]; five-dose) was 31.50 µM, the GI50 [5, 18] was 15.7 µM and the LC50 [5, 18] was 54.9 µM. For the same molecule, the inhibition at 10 µM ([5]; Homo sapiens, 10 μM single dose, SF-539 (CNS cancer), read-out: growth inhibition percent (GI%)) was over 100%, the TGI ([5]; five-dose) was 29.40 µM and the GI50 ([6]; Homo sapiens, subpanel I, read-out: MG-MID (GI50)) was 5.59 µM. For the same molecule, the “Selectivity index (GI50)” value ([6]; full panel MG-MID / subpanel I) was 1.90, the “MG-MID (TGI)” value ([6]; subpanel I) was 16.17 µM and the GI50 ([7]; Homo sapiens, M14, five-dose) was 12 µM. It also gave a CC50 ([7]; Homo sapiens, M14, five-dose, read-out: LC50 (the source's name)) of 51.4 µM, an inhibition at 10 µM ([7]; Homo sapiens, 10 μM single dose, M14 (melanoma), read-out: growth inhibition percent (GI%)) of over 100% and a TGI ([7]; five-dose) of 24.80 µM. For the same molecule, the GI50 ([8]; Homo sapiens, NCI-H460, five-dose) was 9.2 µM, the CC50 ([8]; Homo sapiens, NCI-H460, five-dose, read-out: LC50 (the source's name)) was 53.9 µM and the inhibition at 10 µM ([8]; Homo sapiens, 10 μM single dose, NCI-H460 (non-small cell lung cancer), read-out: growth inhibition percent (GI%)) was over 100%. It also gave a TGI ([8]; five-dose) of 22.90 µM, a GI50 ([9]; Homo sapiens, SF-268, five-dose) of 12.9 µM and a CC50 ([9]; Homo sapiens, SF-268, five-dose, read-out: LC50 (the source's name)) of 65.4 µM. For the same molecule, the inhibition at 10 µM ([9]; Homo sapiens, 10 μM single dose, SF-268 (CNS cancer), read-out: growth inhibition percent (GI%)) was over 100%, the TGI ([9]; five-dose) was 29.10 µM and the inhibition at 10 µM ([10]; Homo sapiens, HT-29, 10 μM single dose, HT29 (colon cancer), read-out: growth inhibition percent (GI%)) was over 100%. The GI50 ([10]; Homo sapiens, HT-29, five-dose) was 3.3 µM, the CC50 ([10]; Homo sapiens, HT-29, five-dose, read-out: LC50 (the source's name)) was 36.6 µM and the TGI ([10]; five-dose) was 10.50 µM. The GI50 ([11]; Homo sapiens, SF-295, five-dose) was 15.8 µM, the CC50 ([11]; Homo sapiens, SF-295, five-dose, read-out: LC50 (the source's name)) was 57.5 µM and the inhibition at 10 µM ([11]; Homo sapiens, 10 μM single dose, SF-295 (CNS cancer), read-out: growth inhibition percent (GI%)) was over 100%. It also gave a TGI ([11]; five-dose) of 30.10 µM, a GI50 ([12]; Homo sapiens, HL-60, five-dose) of 4.5 µM and a CC50 ([12]; Homo sapiens, HL-60, five-dose, read-out: LC50 (the source's name)) of 46.5 µM. It also gave an inhibition at 10 µM ([12]; Homo sapiens, 10 μM single dose, HL-60(TB) (leukaemia), read-out: growth inhibition percent (GI%)) of over 100%, a TGI ([12]; five-dose) of 17.30 µM and a GI50 ([13]; Homo sapiens, BT-549, five-dose) of 13 µM. It also gave a CC50 ([13]; Homo sapiens, BT-549, five-dose, read-out: LC50 (the source's name)) of 53.6 µM, an inhibition at 10 µM ([13]; Homo sapiens, 10 μM single dose, BT-549 (breast cancer), read-out: growth inhibition percent (GI%)) of over 100% and a TGI ([13]; five-dose) of 26.40 µM. The GI50 ([14]; Homo sapiens, subpanel VIII, read-out: MG-MID (GI50)) was 13.4 µM, the “Selectivity index (GI50)” value [14, 19] was 0.79 and the “Selectivity index (TGI)” value [14, 19] was 0.86. The “MG-MID (TGI)” value ([14]; subpanel VIII) was 27.40 µM, the GI50 ([15]; Homo sapiens, A549, five-dose) was 8.1 µM and the LC50 (concentration killing 50% of cells) ([15]; Homo sapiens, A549, five-dose) was 50.2 µM. It also gave an inhibition at 10 µM ([15]; Homo sapiens, 10 μM single dose, A549/ATCC (non-small cell lung cancer), read-out: growth inhibition percent (GI%)) of over 100%, a TGI ([15]; five-dose) of 21.50 µM and an inhibition at 10 µM ([16]; Homo sapiens, U-251, 10 μM single dose, U251 (CNS cancer), read-out: growth inhibition percent (GI%)) of over 100%. The GI50 ([16]; Homo sapiens, U-251, five-dose) was 4.36 µM, the CC50 ([16]; Homo sapiens, U-251, five-dose, read-out: LC50 (the source's name)) was 44.6 µM and the TGI ([16]; five-dose) was 16.10 µM.
